The results in this text go back to US12233140B2, “Hyperbranched polyglycerol-coated particles and methods of making and using thereof” (priority 2014, dated 2025).

Data set [1] in a line: Retention of IR-780 loaded NPs in the peritoneal cavity after IP administration (live imaging). The following applies: free dye control.
Method: Six BALB/c nude mice were divided into 2 groups, 3 mice per group. […] Each mouse received 100 μL NP suspensions. The fluorescence was monitored with live imaging (Xenogen Corp., Alameda, CA) over time. The quantification of fluorescence retained in intraperitoneal cavity over time was determined.
Each mouse received 100 μL of the nanoparticle suspension at 10 mg/mL. The fluorescence was monitored with live imaging (Xenogen, Alameda, CA) over time.
Data set [2] has as its system uterine papillary serous carcinoma (UPSC) cells. Nature of the data set: In vitro cytotoxicity on UPSC cells, 72 h (Cell Titer Blue). The following applies: 3 days. Type of data set: cell-based. On the procedure: UPSC cells (180 μL) were plated in each well of a 96 well plate at a density of 2,000/well and left in a 37° C. incubator overnight. […] The cells were incubated for 72 h and cell viability was quantified with Cell Titer Blue.
(In general: The colour change of resazurin is a common sign of viable cells or microbes.)

For data set [3], the system named is i.p. USC tumors (USC-ARK-2 xenografts). Nature of the data set: Survival and body weight of nude mice bearing intraperitoneal USC tumors, IP treatment. Format: in vivo. The procedure: Forty BALB/c Nude mice (5-6 weeks old, Charles River Laboratories) were intraperitoneally injected with 1×10^6 UPSC cells. After 1 week, drug treatments were started with PBS control, blank PLA-HPGALD control and 3 EB formulations. […] Treatments were administrated intraperitoneally with a dose of EB (0.5 mg/kg) every week for 5 weeks. The body weights of the mice were measured twice a week. Animals were euthanized when the body weight loss exceeded 20%, or when other signals of sickness, such as breathing problems, failure to eat and drink, lethargy or abnormal posture, were observed.
BALB/c Nude mice (5-6 weeks old, Charles River Laboratories) were intraperitoneally injected with 1×10^6 USC cells. After 1 week, drug treatments were started with 8 animals in each group. […] In this experiment, treatments were administrated intraperitoneally with a 2.5 mg/kg dose of EB every week for 3 weeks. In another experiment, five groups were compared as described in Example 11.
The body weights of the mice were measured as described in Example 11.

The nature of data set [4]: Retention profile of EB in peritoneal cavity after IP injection (HPLC). Conditions: 6 hr after a single IP dose, EB 2.5 mg/kg.
Method: C57BL/6 mice (5-6 weeks old, Charles River Laboratories) were divided into three groups with 9 mice per group and one group with 3 mice. The group with 3 mice was used as a vehicle control. […] At each time point (6 hr, 1 d and 3 d), 3 mice from each group and one mouse from the 3-animal vehicle control group were euthanized and the peritoneal cavities washed with 5 mL acetonitrile for 3 times. The acetonitrile samples were centrifuged and the supernatant was collected and processed for HPLC analysis. EB concentration was determined with HPLC with C18 column with methanol/water (7:3) with UV detector set at 240 nm absorbance.

`CCCN1C(=CC=C2CCCC(C=CC3=[N+](CCC)c4ccccc4C3(C)C)=C2Cl)C(C)(C)c2ccccc21.[I-]` [Free dye, IR-780 iodide]: the “time to complete clearance from the IP cavity” value in data set [1] is “less than 4 hours”.
In the case of `C/C(=C\c1csc(C)n1)[C@@H]1C[C@@H]2O[C@]2(C)CCC[C@H](C)[C@H](O)[C@@H](C)C(=O)C(C)(C)[C@@H](O)CC(=O)O1` [free EB, epothilone B], the “in vitro cytotoxicity against UPSC cells” value in data set [2] is recorded as “highest toxicity”. In addition, the “animals surviving to 110 days” value in data set [3] (EB 0.5 mg/kg) is on record as “approximately 10%”. Further, in data set [3] (EB 2.5 mg/kg), the body weight result is reported as “weight loss” and the “death due to toxicity” value was “early death due to EB toxicity”. Moreover, the “survival compared with PBS” value in data set [3] (EB 2.5 mg/kg IP weekly for 3 weeks) was “only mice treated with the lower dosage showed significance”. The “toxicity (weight loss, diarrhea, bowel dilation)” value in data set [3] (FIG. 18B) is reported as “significant toxicity”. Besides, the “survival compared with PBS” value in data set [3] (five-group experiment, EB 0.5 mg/kg IP weekly for 5 weeks) is given as “showed significance”. The “EB retained in the peritoneal cavity” value in data set [4] was “No EB was detected”.
